Source: patent publication US10450549B2, “Aryloxyphenoxypropionate tolerance in turfrgass species and use of AAD1 as a selectable marker” (Dow AgroSciences, LLC, priority 2004, dated 2019)

Tests used:
Assay type in all cases: in vivo, Arabidopsis thaliana
PAAD1.315.064 ARBTH = experiment: In vitro plate test of herbicide cross resistance: homozygous T4 AAD1 (v3) Arabidopsis; settings: for root ratio / shoot ratio: resistant to sensitive biotype, >2 signifies resistance; for PAAD1.315.064 ARBTH root 150 / PAAD1.315.064 T3 ARBTH shoot 150: 7 days
Procedure, shortened: (§1)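 Surface-sterilised seeds sown in nutrient agar dosed with test compounds from DMSO stocks (final DMSO ≤1% v/v; DMSO-only control), grown 7 days at 25 °C under continuous light (75 μE m^−2 s^−1). Shoot growth reduction scored visually; root length measured (≥5 plants averaged) vs control. I50 calculated for root and shoot.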

wt ARBTH = experiment: In vitro plate test of herbicide cross resistance: wild-type Arabidopsis; settings: 7 days
Procedure, shortened: as §1

Wildtype Arabidopsis = experiment: T1 Arabidopsis spray test, % visual injury 2 WAT: wildtype control
Source text: Random individual T1 plants selected for glufosinate resistance above were confirmed for expression of the PAT protein using a PAT ELISA kit (Part no. 7000045, Strategic Diagnostics, Inc., Newark, Del.) to non-destructively confirm fidelity of selection process (manufacturer's protocol). Plants were then randomly assigned to various rates of phenoxy herbicides (dichlorprop or 2,4-D). […] Elevated rates were applied in subsequent trials (50, 200, 800, or 3200 g ae/ha).
All auxin herbicide applications were made using the DeVilbiss sprayer as described above to apply 703 L/ha spray volume (0.4 ml solution/3-inch pot) or applied by track sprayer in a 187 L/ha spray volume. […] Dichlorprop used was technical grade (Sigma, St. Louis, Mo.) dissolved in DMSO and diluted in water (<1% DMSO final concentration). As herbicide rates increased beyond 800 g ae/ha, the pH of the spray solution became exceedingly acidic, burning the leaves of young, tender Arabidopsis plants and complicating evaluation of the primary effects of the herbicides. It became standard practice to apply these high rates of phenoxy herbicides in 200 mM Tris buffer (pH 9.0) to a final pH of ˜7-8.
Although Arabidopsis, being a dicot, is not an optimal system for testing ACCase-inhibiting AOPP grass herbicides, AAD1 (v3)-transformed T1 plants were subjected to elevated rates (400-1600 g ae/ha) of RS-haloxyfop acid (internally synthesized) that do cause growth abnormalities and death of wildtype Arabidopsis using the DeVilbiss sprayer as described above. Injury ratings were taken 7 and 14 days after treatment. Likewise, T1 individuals were treated with the pyridyloxyacetate auxin herbicide, fluroxypyr.
Table 16. […] Response is presented in terms of % visual injury 2 WAT. […] Since each T1 is an independent transformation event, one can expect significant variation of individual T1 responses within a given rate. An arithmetic mean and standard deviation is presented for each treatment. The range in individual response is also indicated in the last column for each rate and transformation. PAT/Cry1F-transformed Arabidopsis served as an auxin-sensitive transformed control. Wildtype Arabidopsis is untransformed.
(§2) Table 17. T1 Arabidopsis response to a range of dichlroprop rates applied postemergence. Response is presented in terms of % visual injury 2 WAT. […] Since each T1 is an independent transformation event, one can expect significant variation of individual T1 responses within a given rate. An arithmetic mean and standard deviation is presented for each treatment. The range in individual response is also indicated in the last column for each rate and transformation. PAT/Cry1F-transformed Arabidopsis served as an auxin-sensitive transformed control. Wildtype Arabidopsis is untransformed.
as §2, with “18.” for “17.”, “haloxyfop” for “dichlroprop”, “postemergence at artificially high rates attempting to show tolerance of the dicot Arabidopsis to the graminicide.” for “postemergence.”

[1] = number of individuals; 100 g ae/ha; Wildtype; 2 WAT
[2] = number of individuals; 200 g ae/ha; Wildtype; 2 WAT
[3] = number of individuals; 400 g ae/ha; Wildtype; 2 WAT
[4] = number of individuals; 800 g ae/ha; Wildtype; 2 WAT
[5] = number of individuals; 1600 g ae/ha; Wildtype; 2 WAT

Question: For `Nc1c(Cl)c(F)nc(OCC(=O)O)c1Cl` [Fluroxypyr], which root ratio (PAAD1.315.064 ARBTH) is on record?
Answer: The root ratio was 1.

Question: And the shoot ratio (PAAD1.315.064 ARBTH)?
Answer: Its shoot ratio is 0.5.

Question: What about the “resistance afforded by AAD1 (v3) in plate test” value (PAAD1.315.064 ARBTH; root and shoot assessment) of the same compound?
Answer: Its value is “did not effectively protect”.

Question: And the “PAAD1.315.064 ARBTH root 150” value (PAAD1.315.064 ARBTH)?
Answer: Its value is 0.2 ppm.

Question: What about the “PAAD1.315.064 T3 ARBTH shoot 150” value (PAAD1.315.064 ARBTH) of the same compound?
Answer: The value was 1 ppm.

Question: What about the “wt ARBTH root 150” value (wt ARBTH) of the same compound?
Answer: Its value is 0.2 ppm.

Question: What about the “wt ARBTH shoot 150” value (wt ARBTH) of the same compound?
Answer: The value was 2 ppm.

Question: Which results are given for `O=C(O)COc1ccc(Cl)cc1Cl` [2,4-D, 2,4-dichlorophenoxyacetic acid]?
Answer: % Injury Ave (Wildtype Arabidopsis; Wildtype; 50 g ae/ha; 2 WAT): 90.0%; individuals with 20-40% injury (Wildtype Arabidopsis; Wildtype; 50 g ae/ha; 2 WAT): 0; individuals with <20% injury (Wildtype Arabidopsis; Wildtype; 50 g ae/ha; 2 WAT): 0; individuals with >40% injury (Wildtype Arabidopsis; Wildtype; 50 g ae/ha; 2 WAT): 15; % Injury Ave (Wildtype Arabidopsis; Wildtype; 200 g ae/ha; 2 WAT): 95.1%; individuals with 20-40% injury (Wildtype Arabidopsis; Wildtype; 200 g ae/ha; 2 WAT): 0; individuals with <20% injury (Wildtype Arabidopsis; Wildtype; 200 g ae/ha; 2 WAT): 0; individuals with >40% injury (Wildtype Arabidopsis; Wildtype; 200 g ae/ha; 2 WAT): 15; % Injury Ave (Wildtype Arabidopsis; Wildtype; 800 g ae/ha; 2 WAT): 100.0%; individuals with 20-40% injury (Wildtype Arabidopsis; Wildtype; 800 g ae/ha; 2 WAT): 0; individuals with <20% injury (Wildtype Arabidopsis; Wildtype; 800 g ae/ha; 2 WAT): 0; individuals with >40% injury (Wildtype Arabidopsis; Wildtype; 800 g ae/ha; 2 WAT): 15; GR99 for Arabidopsis (Wildtype Arabidopsis; postemergence spray): about 50 g ae/ha; PAAD1.315.064 ARBTH root 150 (PAAD1.315.064 ARBTH): 0.04 ppm; PAAD1.315.064 T3 ARBTH shoot 150 (PAAD1.315.064 ARBTH): 10 ppm; wt ARBTH root 150 (wt ARBTH): <0.01 ppm; wt ARBTH shoot 150 (wt ARBTH): 0.2 ppm

Question: Which “% Injury Ave” value (Wildtype Arabidopsis; 100 g ae/ha; Wildtype; 2 WAT) does the source give for `CC(Oc1ccc(Oc2ncc(C(F)(F)F)cc2Cl)cc1)C(=O)O` (stereo not shown) [haloxyfop] here?
Answer: The value was 0.0%.

Question: And the “% Injury Range” value (Wildtype Arabidopsis; 100 g ae/ha; Wildtype; 2 WAT)?
Answer: The value was 0%.

Question: And the “% Injury Ave” value (Wildtype Arabidopsis; 200 g ae/ha; Wildtype; 2 WAT)?
Answer: The value was 0.0%.

Question: And the “% Injury Range” value (Wildtype Arabidopsis; 200 g ae/ha; Wildtype; 2 WAT)?
Answer: Its value is 0%.

Question: What about the “% Injury Ave” value (Wildtype Arabidopsis; 400 g ae/ha; Wildtype; 2 WAT) of the same compound?
Answer: Its value is 20.0%.

Question: And the “% Injury Range” value (Wildtype Arabidopsis; 400 g ae/ha; Wildtype; 2 WAT)?
Answer: The value was 20%.

Question: And the “% Injury Ave” value (Wildtype Arabidopsis; 800 g ae/ha; Wildtype; 2 WAT)?
Answer: Its value is 73.3%.

Question: What about the “% Injury Range” value (Wildtype Arabidopsis; 800 g ae/ha; Wildtype; 2 WAT) of the same compound?
Answer: The value was 70-85%.

Question: And the “% Injury Ave” value (Wildtype Arabidopsis; 1600 g ae/ha; Wildtype; 2 WAT)?
Answer: Its value is 93.3%.

Question: What about the “% Injury Range” value (Wildtype Arabidopsis; 1600 g ae/ha; Wildtype; 2 WAT) of the same compound?
Answer: The value was 80-100%.

Question: And the “% Injury 20-40%” value (Wildtype Arabidopsis; [1])?
Answer: The value was 0.

Question: And the “% Injury <20%” value (Wildtype Arabidopsis; [1])?
Answer: The value was 3.

Question: And the “% Injury >40%” value (Wildtype Arabidopsis; [1])?
Answer: The value was 0.

Question: And the “% Injury 20-40%” value (Wildtype Arabidopsis; [2])?
Answer: Its value is 0.

Question: And the “% Injury <20%” value (Wildtype Arabidopsis; [2])?
Answer: The value was 3.

Question: And the “% Injury >40%” value (Wildtype Arabidopsis; [2])?
Answer: Its value is 0.

Question: And the “% Injury 20-40%” value (Wildtype Arabidopsis; [3])?
Answer: The value was 3.

Question: What about the “% Injury <20%” value (Wildtype Arabidopsis; [3]) of the same compound?
Answer: Its value is 0.

Question: What about the “% Injury >40%” value (Wildtype Arabidopsis; [3]) of the same compound?
Answer: Its value is 0.

Question: What about the “% Injury 20-40%” value (Wildtype Arabidopsis; [4]) of the same compound?
Answer: The value was 0.

Question: What about the “% Injury <20%” value (Wildtype Arabidopsis; [4]) of the same compound?
Answer: The value was 0.

Question: What about the “% Injury >40%” value (Wildtype Arabidopsis; [4]) of the same compound?
Answer: The value was 3.

Question: What about the “% Injury 20-40%” value (Wildtype Arabidopsis; [5]) of the same compound?
Answer: Its value is 0.

Question: What about the “% Injury <20%” value (Wildtype Arabidopsis; [5]) of the same compound?
Answer: The value was 0.

Question: And the “% Injury >40%” value (Wildtype Arabidopsis; [5])?
Answer: The value was 3.

Question: `CC(Oc1ccc(Cl)cc1Cl)C(=O)O` (racemic) [(R,S)-dichlorprop, 2,4-dichlorophenoxypropionic acid] was tested. Which “% Injury Ave” value (Wildtype Arabidopsis; Wildtype; 12.5 g ae/ha; 2 WAT) did it give?
Answer: The value was 13.3%.

Question: What about the “% Injury Range” value (Wildtype Arabidopsis; Wildtype; 12.5 g ae/ha; 2 WAT) of the same compound?
Answer: Its value is 10-15%.

Question: And the “individuals with 20-40% injury” value (Wildtype Arabidopsis; Wildtype; 12.5 g ae/ha; 2 WAT)?
Answer: The value was 0.

Question: What about the “individuals with <20% injury” value (Wildtype Arabidopsis; Wildtype; 12.5 g ae/ha; 2 WAT) of the same compound?
Answer: The value was 3.

Question: And the “individuals with >40% injury” value (Wildtype Arabidopsis; Wildtype; 12.5 g ae/ha; 2 WAT)?
Answer: Its value is 0.

Question: And the “% Injury Ave” value (Wildtype Arabidopsis; Wildtype; 50 g ae/ha; 2 WAT)?
Answer: The value was 53.3%.

Question: And the “% Injury Range” value (Wildtype Arabidopsis; Wildtype; 50 g ae/ha; 2 WAT)?
Answer: The value was 50-60%.

Question: What about the “individuals with 20-40% injury” value (Wildtype Arabidopsis; Wildtype; 50 g ae/ha; 2 WAT) of the same compound?
Answer: Its value is 0.

Question: And the “individuals with <20% injury” value (Wildtype Arabidopsis; Wildtype; 50 g ae/ha; 2 WAT)?
Answer: The value was 0.

Question: And the “individuals with >40% injury” value (Wildtype Arabidopsis; Wildtype; 50 g ae/ha; 2 WAT)?
Answer: The value was 3.

Question: What about the “% Injury Ave” value (Wildtype Arabidopsis; Wildtype; 200 g ae/ha; 2 WAT) of the same compound?
Answer: Its value is 95.0%.

Question: What about the “% Injury Range” value (Wildtype Arabidopsis; Wildtype; 200 g ae/ha; 2 WAT) of the same compound?
Answer: Its value is 90-100%.

Question: What about the “individuals with 20-40% injury” value (Wildtype Arabidopsis; Wildtype; 200 g ae/ha; 2 WAT) of the same compound?
Answer: The value was 0.

Question: What about the “individuals with <20% injury” value (Wildtype Arabidopsis; Wildtype; 200 g ae/ha; 2 WAT) of the same compound?
Answer: Its value is 0.

Question: And the “individuals with >40% injury” value (Wildtype Arabidopsis; Wildtype; 200 g ae/ha; 2 WAT)?
Answer: Its value is 3.

Question: What about the “% Injury Ave” value (Wildtype Arabidopsis; Wildtype; 800 g ae/ha; 2 WAT) of the same compound?
Answer: The value was 100.0%.

Question: And the “% Injury Range” value (Wildtype Arabidopsis; Wildtype; 800 g ae/ha; 2 WAT)?
Answer: The value was 100%.

Question: And the “individuals with 20-40% injury” value (Wildtype Arabidopsis; Wildtype; 800 g ae/ha; 2 WAT)?
Answer: The value was 0.

Question: What about the “individuals with <20% injury” value (Wildtype Arabidopsis; Wildtype; 800 g ae/ha; 2 WAT) of the same compound?
Answer: The value was 0.

Question: What about the “individuals with >40% injury” value (Wildtype Arabidopsis; Wildtype; 800 g ae/ha; 2 WAT) of the same compound?
Answer: Its value is 3.

Question: And the “GR99 for Arabidopsis” value (Wildtype Arabidopsis; postemergence spray)?
Answer: Its value is roughly 200 g ae/ha.

Question: What about the root ratio (PAAD1.315.064 ARBTH) of the same compound?
Answer: Its root ratio is 150.

Question: What about the shoot ratio (PAAD1.315.064 ARBTH) of the same compound?
Answer: Its shoot ratio is 2.5.

Question: And the “PAAD1.315.064 ARBTH root 150” value (PAAD1.315.064 ARBTH)?
Answer: The value was 1.5 ppm.

Question: What about the “PAAD1.315.064 T3 ARBTH shoot 150” value (PAAD1.315.064 ARBTH) of the same compound?
Answer: Its value is 5 ppm.

Question: And the “wt ARBTH root 150” value (wt ARBTH)?
Answer: Its value is 0.01 ppm.

Question: What about the “wt ARBTH shoot 150” value (wt ARBTH) of the same compound?
Answer: The value was 2 ppm.
